Several values for one entry are separate records, joined by “and”; a condition that tells them apart may be missing. Equal entries are not always repeated. Activity calls are given as the source filed them.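 The calls were made as follows: active = compounds giving half or more protection of infected cells from virus-caused growth loss, again on retest; inactive = the rest.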 Where a SMILES comes first, the peptide text is derived from it. The star is where a group is joined. Fmoc = O=C(OCC1c2ccccc2-c2ccccc21)*; Boc = CC(C)(C)OC(=O)*
System: CEM cells HIV-1 protection, formazan growth assay
Test: NCI AIDS Antiviral Assay
Conditions: for IC50: measured here: growth of uninfected CEM cells
Method: The ability of compounds to protect human CEM cells from HIV-1 infection is measured as a screen for new compounds capable of inhibiting the HIV virus. Five concentrations of drug were tested on uninfected and infected cells and cell growth was measured using a soluble formazan assay. […] Compounds that provided at least 50% protection were retested. Compounds that provided at least 50% protection on retest were listed as moderately active. Compounds that reproducibly provided 100% protection were listed as confirmed active. […] Note that the inability to provide protection could be due to toxicity.

Row | SMILES | outcome | EC50 | IC50
1 | O=Cc1cc2sc(C=O)cc2s1 | inactive |  | 
2 | c1ccc(Nc2nnc(CCCCCCCCc3nnc(Nc4ccccc4)o3)o2)cc1 |  | > 200 µM | 107 µM
3 | c1ccc(C2=C(c3ccccc3)/N=N/C(c3ccccc3)=C(c3ccccc3)\N=N\2)cc1 |  | > 200 µM | > 200 µM
4 | COc1ccc(-n2cnc3c2NC(C)(C)N=C3C(N)=O)c(OC)c1 |  | > 200 µM | > 200 µM
5 | C#Cc1cccc(N2C(=O)CC(=P(c3ccccc3)(c3ccccc3)c3ccccc3)C2=O)c1 |  | > 11.2 µM | > 11.2 µM
6 | CCOc1ccc(C2=C(Cl)c3cc(OC)c(OC)cc3C2Cl)cc1 (stereo not drawn) | inactive |  | 
7 | CC1=C(CO)C(=O)O[C@@H]([C@@H](CO)[C@H]2CCC3C4C[C@@H](O)[C@@]5(O)CC=CC(=O)[C@]5(C)C4CC[C@@]32C)C1 (stereo partly drawn) | inactive |  | 
8 | CN1CCOC1(C)c1ccccc1 (stereo not drawn) |  | > 200 µM | > 200 µM
9 | CN(C)c1ccc(/C=C/C(=O)c2ccc(O)cc2)cc1 |  | > 200 µM | 3.31 µM
10 | CC1OC(=O)C(O)=C1O (stereo not drawn) | inactive |  | 
11 | COc1cc(OC)c(C2=NOC(n3c4ccccc4c4ccccc43)C2)c(OC)c1 (stereo not drawn) | inactive |  | 
12 | CSCS(=O)C[C@H](CO)NC(=O)/C=C/c1c(C)[nH]c(=O)[nH]c1=O (stereo partly drawn) |  | > 692 µM | 0.447 µM
13 | Fc1ccccc1C=NC12CC3CC(CC(C3)C1)C2 |  | > 20.4 µM | > 20.4 µM
14 | N=C(N)c1ccc(NC(=O)c2ccc(C(=O)Nc3ccc(C(=N)N)cc3)c(N)c2)cc1 |  | 53.7 µM | > 200 µM
15 | N#Cc1c(=O)c2cccnc2n2c1[nH]c1ccccc12 |  | > 200 µM | > 200 µM
16 | COc1cc(C(=O)C(CO)Oc2ccccc2OC)ccc1O (stereo not drawn) |  | > 794 µM | 123 µM
17 | N#Cc1cccc2c1Sc1ccccc1N2 |  | > 200 µM | 12 µM
18 | CCOC(=O)C(C)NC(=O)C(C)NC(=O)C(C)NC(=O)C(C)NC(=O)C(C)NC(=O)OCc1ccccc1 (stereo not drawn) |  | > 200 µM | > 200 µM
19 | NCCCCN(CCCN)C(=O)c1ccccc1 | inactive |  | 
20 | CNC(=O)OCC1=CC(=O)C=C(OC)C1=O |  | > 550 µM | 11 µM
21 | CC1=NN(c2ccccc2)C(=O)C1=C1SCCS1 |  | > 182 µM | > 182 µM
22 | CC(=O)c1c2c(cc3c1CCC3)CCC2 |  | > 200 µM | > 200 µM
23 | CCCCCCc1cc2c(O)c(C(c3ccccc3)c3c(O)c4cc(CCCCCC)c(O)cc4oc3=O)c(=O)oc2cc1O |  | > 200 µM | 5.62 µM
24 | COc1ccccc1N=Nc1c(-c2ccccc2)nn(C(=O)CC(=O)Nc2cccc(C)c2)c1-c1ccccc1 |  | > 35.5 µM | 20.9 µM
25 | CC(=O)Nc1ccc(/C=C2\SC(=S)N(C=C(C#N)C#N)C2=O)cc1 |  | > 200 µM | 49 µM
26 | Cc1nn(-c2ccccc2)c2[nH]c(=S)cnc12 |  | > 200 µM | 87.1 µM
27 | COC1(OC)CCCCCCCCC(OC)(OC)CCCCCCCC1 |  | > 200 µM | > 200 µM

Row | SMILES | outcome | EC50 | IC50
28 | CC(C)CCCC(C)[C@H]1CC[C@@H]2[C@H]3CC[C@H]4C[C@@H](CCC=C(c5cc(Cl)c(OCc6ccccc6[N+](=O)[O-])c(C(=O)OCc6ccccc6[N+](=O)[O-])c5)c5cc(Cl)c(OCc6ccccc6[N+](=O)[O-])c(C(=O)OCc6ccccc6[N+](=O)[O-])c5)CC[C@]4(C)[C@@H]3CC[C@]12C (stereo partly drawn) |  | 112 µM | > 200 µM
29 | CC(C)(C)OC(=O)NCCCCC(NC(=O)C(Cc1c[nH]c2ccccc12)NC(=O)OCC1c2ccccc2-c2ccccc21)C(=O)N1CCCC1C(=O)NCC(N)=O (stereo not drawn) (Fmoc-WK(Boc)PG-NH2; configuration not given here) |  | > 200 µM | > 200 µM
30 | CC(=N/NC(=S)N1CCCCCC1)/C(C)=N\NC(=S)N1CCCCCC1 |  | > 100 µM | 8.71 µM
31 | CSC(=NCCCCN=C(NS(=O)(=O)c1ccc(Cl)cc1)SC)NS(=O)(=O)c1ccc(Cl)cc1 |  | > 200 µM | > 200 µM
32 | CC(=O)N(C(C)=O)c1c(C)cc(-c2cccs2)oc1=O |  | > 200 µM | > 100 µM
33 | O=C1NC2CC1C(O)C2O (stereo not drawn) |  | > 200 µM | > 200 µM
34 | C=CP(CCP(CCP(C=C)N(CC)CC)c1ccccc1)N(CC)CC (stereo not drawn) |  | > 6.46 µM | > 6.46 µM
35 | C=C(C)[C@@]1(OC(=O)c2cc([N+](=O)[O-])cc([N+](=O)[O-])c2)C[C@@H]2CCCC[C@@H]21 | inactive |  | 
36 | CSc1nc(N)nc(N)n1 |  | > 200 µM | > 200 µM
37 | CN(C)CCCNC(=O)c1cc(NC(=O)c2cc(NC(=O)c3cc(NC(=O)c4cccc(C(=O)Nc5cc(C(=O)Nc6cc(C(=O)Nc7cc(C(=O)NCCCN(C)C)n(C)c7)n(C)c6)n(C)c5)n4)cn3C)cn2C)cn1C |  | > 100 µM | > 100 µM
38 | CCC1=NS(=O)(=O)c2c(ncn2C)N1 |  | > 1150 µM | > 1150 µM
39 | O=C1C2=C(SCCS2)C(=O)c2ccccc21 |  | > 42.7 µM | 0.676 µM
40 | CCOC(=O)c1ccc(NC(=O)O/N=C(/Cl)CC)cc1 | inactive |  | 
41 | O=C(O)CCCCCCC[C@@H]1S[C@H]1CCCCCCO | inactive |  | 
42 | Cc1cc(S(=O)(=O)Nc2nc3ncccc3[nH]2)c(S)cc1Cl |  | 33.1 µM | > 200 µM
43 | CCCCC(=O)NS(=NC(=O)c1ccccc1)C(Cl)(Cl)Cl (stereo not drawn) |  | > 200 µM | > 200 µM
44 | CC(=O)/C(=C/c1ccccc1Br)C(=O)c1ccccc1 |  | > 57.5 µM | 22.4 µM
45 | CC1OC(OC2C(OC(=O)[C@]34CCC(C)(C)CC3C3=CCC5[C@@]6(C)C[C@H](O)[C@H](OC7OC(CO)C(O)C(O)C7N)[C@@](C)(C(=O)O)C6CC[C@@]5(C)C3(C)CC4)OCC(O)C2O)C(O)C(O)C1OC1OCC(O)C(O)C1O (stereo partly drawn) |  | > 123 µM | > 123 µM
46 | O=C(c1c2c(cc3c1CC1(Cc4cc5c(cc4C1)CCCC5)C3)CCCC2)C(Br)Br |  | > 100 µM | 4.9 µM
47 | O=[N+]([O-])c1ccc(CSSCc2ccc([N+](=O)[O-])cc2)cc1 |  | > 200 µM | 17.8 µM
48 | COC(=O)/C(=N\N)C(C(=O)C(=O)Nc1cc(Cl)ccc1Cl)c1nc2ccc([N+](=O)[O-])cc2[nH]c1=O (stereo not drawn) |  | > 182 µM | 83.2 µM
49 | O=S(=O)(O)C(=Nc1cccc(Cc2ccccc2)c1)Nc1cccc(Cc2ccccc2)c1 |  | > 200 µM | 14.8 µM
50 | CC1=NN(C(=O)c2cc(Cl)cc([N+](=O)[O-])c2)C(=O)C1N=Nc1ccccc1C(=O)O (stereo not drawn) | inactive |  | 
51 | Fc1c(F)c(-c2c(F)c(F)c(S)c(F)c2F)c(F)c(F)c1S | inactive |  | 
52 | COC(=O)CP1(=O)OC2C(C3CCC2(C)C3(C)C)N1c1cc(C(F)(F)F)cc(C(F)(F)F)c1 (stereo not drawn) |  | > 200 µM | 
53 | COc1ccc2[nH]c(=O)cc(C)c2c1[N+](=O)[O-] | inactive |  | 
54 | COc1cc2c(cc1OC)NCC1COc3c(ccc(OC)c3OC)C1=N2 (stereo not drawn) |  | > 200 µM | 117 µM

Row | SMILES | outcome | EC50 | IC50
55 | Cc1cn(C2CC(N=[N+]=[N-])C(COP(=O)(OCC(=O)C(C)(C)C)OCC(=O)C(C)(C)C)O2)c(=O)[nH]c1=O (stereo not drawn) |  | 0.0011 µM | 2 µM
56 | O=C(/C=C/c1cccs1)c1ccsc1 |  | > 200 µM | 11.7 µM
57 | NN1C(=O)c2cccc3cccc(c23)C1=O |  | > 100 µM | 49 µM
58 | C[N+](C)(C)CC1CCCC(C[N+](C)(C)C)C1=O (stereo not drawn) | inactive |  | 
59 | N#C/C(=C\c1ccccc1Br)C(=O)c1ccccc1 |  | > 32.4 µM | > 32.4 µM
60 | CN(C)CCCNC(=O)c1nc(NC(=O)c2nc(NC(=O)c3nc(NC(=O)c4ccc(C(=O)Nc5cn(C)c(C(=O)Nc6cn(C)c(C(=O)Nc7cn(C)c(C(=O)NCCCN(C)C)n7)n6)n5)nc4)cn3C)cn2C)cn1C |  | > 50.1 µM | > 50.1 µM
61 | CCC1C(C#N)=C(O)NC(O)=C1C#N |  | > 1290 µM | 813 µM
62 | NNC(=S)N/N=C(/C(=O)Nc1ccc([N+](=O)[O-])cc1)c1nc2ccc([N+](=O)[O-])cc2[nH]c1=O |  | > 145 µM | > 145 µM
63 | COc1ccc2ccccc2c1C1=NC(C)(C)CO1 |  | > 977 µM | 479 µM
64 | CC1(C)C(CBr)=[N+]([O-])C(C)(C)N1O |  | > 200 µM | 3.72 µM
65 | Cn1ccn2c3nc4ccccc4nc3c(=O)c(C#N)c12 | inactive |  | 
66 | NNC(=S)N/N=C(\c1nc2ccc(Cl)cc2[nH]c1=O)C(O)c1cccc([N+](=O)[O-])c1 (stereo not drawn) |  | > 562 µM | 120 µM
67 | CC(=O)Oc1ccccc1[C@H]1CC(=O)C[C@H](c2ccccc2OC(C)=O)C12C(=O)c1ccccc1C2=O |  | > 200 µM | 46.8 µM
68 | Cc1ccc(NC(=O)CSc2nc(C)nc3c2sc(=S)n3-c2ccccc2)cc1 |  | > 200 µM | 138 µM
69 | c1ccc(Cn2cc(CCc3ccncc3)c3ccccc32)cc1 |  | > 200 µM | 28.2 µM
70 | CCN(CC)c1ccc2cc3ccc(=[N+](CC)CC)cc-3oc2c1 |  | > 501 µM | 0.158 µM
71 | CCCNC(=O)OCCCOC(=O)/C=C(\C(=O)OCCCOC(=O)NCCC)N1[C@H](C)Cc2c(-c3cc(-c4cc(-c5c(O)cc(O)c6c5C[C@@H](C)N[C@@H]6C)c5cc(C)cc(OC)c5c4O)c(O)c4c(OC)cc(C)cc34)c(O)cc(O)c2[C@H]1C |  | > 25.1 µM | > 25.1 µM
72 | CCOC1OC(CO[Si](C)(C)C(C)(C)C)C(O)CC1n1ccc(=O)[nH]c1=O (stereo not drawn) |  | > 200 µM | 31.6 µM
73 | CCCCCCC[CH2][Sn]1([CH2]CCCCCCC)[O]C(=O)c2cccnc2[S]1 |  | 0.794 µM | 91.2 µM
74 | O=c1c(Cl)c(Cl)cnn1-c1ccccc1 |  | > 126 µM | 0.288 µM and 2.63 µM
75 | CCOC(=O)c1ccc(CSc2ccc(OC)cc2)cc1 |  | > 33.1 µM | 16.2 µM
76 | ClCCCc1ccccc1C1=NCCc2ccccc21 |  | > 200 µM | 5.25 µM
77 | CC(C)(O)CCC(=O)[C@](C)(O)[C@H]1[C@H](O)C[C@@]2(C)[C@@H]3CC=C4[C@@H](C[C@@H](O)[C@@H](O)C4(C)C)[C@]3(C)C(=O)C[C@]12C |  | > 200 µM | > 200 µM
78 | [N-]=[N+]=Nc1c(C=O)c(=O)n2c3c(cccc13)CCC2 |  | > 200 µM | 4.27 µM
79 | O=C1NC(N2CCOCC2)=N/C1=C\c1ccccc1 |  | > 200 µM | > 200 µM
